Reference: US10993916B2, “Crystalline microparticles of a beta-agonist coated with a fatty acid” (Chiesi Farmaceutici S.p.A., priority 2011, dated 2021)

Assays:
Assay type in all cases: physicochemical
[1] = Aerosol performances of the pMDI formulations of formoterol fumarate microparticles (Next Generation Impactor); details: pMDI suspension in HFA134a, nominal dose 12 μg, mean±S.D.
Protocol: To prepare pMDI aerosol suspension formulations with a nominal dose of the active ingredient of 12 μg, the aluminum canisters were filled in a controlled atmosphere room, by successively introducing 2.4 mg the microparticles of Example 1 and then 10 ml pressurized HFA134a gas. The devices were fitted with a 50 μl APTAR valve and a Bespak actuator of 0.3 mm. For comparative purposes, a pMDI aerosol suspension formulations comprising micronized formoterol fumarate dihydrate was also prepared. The sedimentation rate was determined using a Turbiscan apparatus (Formulaction SA, France).
(§1) The pMDI formulations were also characterized in terms of aerosol performances. They were assessed using a Next Generation Impactor to according to the procedure described in the European Pharmacopoeia 7th edition, 2011, part 2.9.18.
(§2) Quantification of formoterol fumarate dihydrate (FF) was performed using a HPLC method. The following parameters were determined: • i) delivered dose (DD) is calculated from the cumulative deposition in the […], divided by the number of actuations per experiment; • ii) fine particle mass (FPM) is obtained by interpolation of the cumulative percentage undersize of drug mass deposition versus cut off diameter. The FPM corresponds to particles of diameter ≤5.0 microns, divided by the number of actuations per experiment. • iii) respirable fraction (fine particle fraction=FPF) which is the percent ratio between the fine particle mass and the delivered dose. • iv) mass median aerodynamic diameter (MMAD) which is the diameter around which the mass aerodynamic diameters of the emitted particles are distributed equally;

[2] = Aerosol performances of the powder formulations (Next Generation Impactor, RS01/7 inhaler); details: dry powder with alpha-lactose monohydrate carrier, 6 μg drug to 10 mg carrier, mean±S.D.
Protocol: To prepare powder formulations, the microparticles of Example 1 FF-myr 0.5 and Ff-myr 2.0 were mixed in a Turbula mixer with alpha-lactose monohydrate having a mass diameter comprised between 90 and 150 μm as a carrier, to obtain a ratio of 6 μg of drug to 10 mg of carrier. […] Each powder was filled in hard HMPC gelatine capsules, in turn loaded in a RS01/7 unit dose inhaler (Plastiape, Italy).
The aerosol performances were evaluated using a Next Generation Impactor (NGI) according to the procedure described in European Pharmacopoeia 7th edition, 2011, part 2.9.18, pages 281-285. The results (mean±S.D.) in terms of delivered dose (DD), fine particle mass (FPM), fine particle fraction (FPF) and mass median aerodynamic diameter (MMAD), are reported in Table 3.

[3] = Aerosol performances of the pMDI formulations of salmeterol xinafoate microparticles (Next Generation Impactor); details: pMDI suspension in HFA134a, FEP-coated canisters, nominal dose 25 μg, mean±S.D.
Protocol: as §1, §2
To prepare pMDI aerosol suspension formulations with a nominal dose of the active ingredient of 25 μg, canisters coated with FEP were filled in a controlled atmosphere room, by successively introducing 3.0 mg the microparticles of Example 5 and then 6 ml pressurized HFA134a gas. The devices were fitted with a 50 μl APTAR valve and a Bespak actuator of 0.3 mm. For comparative purposes, a pMDI aerosol suspension formulations comprising micronized salmeterol xinafoate was also prepared. The pMDI formulations were characterized in terms of aerosol performances. They were assessed as described in Example 3.

Compound | DD (delivered dose) [1] [µg] | FPF (fine particle fraction, respirable fraction) [1] [%] | FPM (fine particle mass, ≤5.0 microns) [1] [µg] | MMAD (mass median aerodynamic diameter) [1] [μm] | DD (delivered dose) [2] [µg] | FPF (fine particle fraction) [2] [%] | FPM (fine particle mass) [2] [µg] | MMAD (mass median aerodynamic diameter) [2] [μm] | DD (delivered dose) [3] [µg] | FPF (fine particle fraction) [3] [%] | FPM (fine particle mass) [3] [µg] | MMAD (mass median aerodynamic diameter) [3] [μm]
COc1ccc(CC(C)NCC(O)c2ccc(O)c(NC=O)c2)cc1.COc1ccc(CC(C)NCC(O)c2ccc(O)c(NC=O)c2)cc1.O.O.O=C(O)/C=C/C(=O)O (stereo not drawn) [FF raw material, formoterol fumarate dihydrate] | 8.34 ± 0.32 | 81.9 ± 2.9 | 6.84 ± 0.51 | 1.92 ± 0.00 | 73 ± 0.02 | 14.03 ± 0.82 | 0.71 ± 0.04 | 2.36 ± 0.05 |  |  |  | 
OCc1cc(C(O)CNCCCCCCOCCCCc2ccccc2)ccc1O (stereo not drawn) [SX raw, salmeterol xinafoate] |  |  |  |  |  |  |  |  | 14.28 ± 1.72 | 29.74 ± 1.75 | 4.23 ± 0.25 | 2.79 ± 0.39
